# Results reported in US20260262643A1, “HERBICIDAL BENZOXAZINES” (FMC CORPORATION, priority 2022, published 2026).
# Experiments:
# [1] = system: oat, wild; assay: Test A postemergence; assay type: in vivo, Avena fatua; conditions: 500 g ai/ha, postemergence, 10 days, visual injury, 0 to 100 scale (0 no effect, 100 complete control)
# From the text: (§1) Seeds of plant species selected from barnyardgrass (Echinochloa crusgalli), blackgrass (Alopecurus myosuroides), corn (Zea mays), foxtail, giant (giant foxtail, Setaria faberi), goosegrass (Eleusine indica), kochia (Bassia scoparia), oat, wild (wild oat, Avena fatua), pigweed, palmer (palmer amaranth, palmer pigweed, Amaranthus palmeri), Pigweed, Redroot (redroot pigweed, Amaranthus retroflexus), ragweed (common ragweed, Ambrosia artemisiifolia), ryegrass, Italian (italian ryegrass, Lolium multiflorum), soybean (Glycine max), and wheat (Triticum aestivum) were planted into a blend of loam soil and sand and treated preemergence with a directed soil spray using test chemicals formulated in a non-phytotoxic solvent mixture which included a surfactant. At the same time, plants selected from these crops and weed species and also galium (catchweed bedstraw, Galium aparine) and horseweed (Erigeron canadensis) were planted in pots containing the same blend of loam soil and sand and treated with postemergence applications of test chemicals formulated in the same manner. Plants ranged in height from 2 to 10 cm and were in the one- to two-leaf stage for the postemergence treatment. Treated plants and untreated controls were maintained in a greenhouse for 10 days, after which time all treated plants were compared to untreated controls and visually evaluated for injury. Plant response ratings, summarized in Table A, are based on a 0 to 100 scale where 0 is no effect and 100 is complete control. A dash (-) response means no test result.
# [2] = system: foxtail, giant; assay: Test A postemergence; assay type: in vivo, Setaria faberi; conditions: postemergence, 10 days, visual injury, 0 to 100 scale (0 no effect, 100 complete control)
# How it was run: (§2)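 Weeds and crops in loam–sand blend were sprayed preemergence onto soil or postemergence at 2–10 cm (one- to two-leaf stage). Test chemicals were in a non-phytotoxic solvent with surfactant. After 10 days in the greenhouse, injury was rated visually against untreated controls on a 0 (no effect) to 100 (complete control) scale.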
# [3] = system: blackgrass; assay: Test A postemergence; assay type: in vivo, Alopecurus myosuroides
# How it was run: as §2
# [4] = system: goosegrass; assay: Test A preemergence; assay type: in vivo, Eleusine indica
# How it was run: as §2
# [5] = system: pigweed, palmer; assay: Test A preemergence; assay type: in vivo, Amaranthus palmeri
# How it was run: as §2
# [6] = system: soybean; assay: Test A preemergence; assay type: in vivo, Glycine max
# From the text: as §1
# [7] = system: goosegrass; assay: Test A postemergence; assay type: in vivo, Eleusine indica; conditions: postemergence, 10 days, visual injury, 0 to 100 scale (0 no effect, 100 complete control)
# How it was run: as §2
# [8] = system: rice; assay: Test B flooded paddy test; assay type: in vivo, Oryza sativa; conditions: 250 g ai/ha, Flood, 13 days, 0 to 100 scale (0 no effect, 100 complete control)
# Procedure: (§3) Plant species in the flooded paddy test selected from barnyardgrass (Echinochloa crus-galli), ducksalad (Heteranthera limosa), rice (Oryza sativa), and sedge, umbrella (small-flower umbrella sedge, Cyperus difformis) were grown to the 2-leaf stage for testing. At time of treatment, test pots were flooded to 3 cm above the soil surface, treated by application of test compounds directly to the paddy water, and then maintained at that water depth for the duration of the test. Treated plants and controls were maintained in a greenhouse for 13 days, after which time all species were compared to controls and visually evaluated. Plant response ratings, summarized in Table B, are based on a scale of 0 to 100 where 0 is no effect and 100 is complete control. A dash (-) response means no test result.
# [9] = system: galium; assay: Test A postemergence; assay type: in vivo, Galium aparine; conditions: postemergence, 10 days, visual injury, 0 to 100 scale (0 no effect, 100 complete control)
# How it was run: as §2
# [10] = system: corn; assay: Test A postemergence; assay type: in vivo, Zea mays; conditions: postemergence, 10 days, visual injury, 0 to 100 scale (0 no effect, 100 complete control)
# From the text: as §1
# [11] = system: wheat; assay: Test A postemergence; assay type: in vivo, Triticum aestivum; conditions: 500 g ai/ha, postemergence, 10 days, visual injury, 0 to 100 scale (0 no effect, 100 complete control)
# From the text: as §1
# [12] = system: soybean; assay: Test A postemergence; assay type: in vivo, Glycine max; conditions: 500 g ai/ha, postemergence, 10 days, visual injury, 0 to 100 scale (0 no effect, 100 complete control)
# From the text: as §1
# [13] = system: wheat; assay: Test A preemergence; assay type: in vivo, Triticum aestivum
# From the text: as §1
# [14] = system: kochia; assay: Test A postemergence; assay type: in vivo, Bassia scoparia; conditions: postemergence, 10 days, visual injury, 0 to 100 scale (0 no effect, 100 complete control)
# How it was run: as §2
# [15] = system: ragweed; assay: Test A postemergence; assay type: in vivo, Ambrosia artemisiifolia; conditions: 500 g ai/ha, postemergence, 10 days, visual injury, 0 to 100 scale (0 no effect, 100 complete control)
# How it was run: as §2
# [16] = system: ryegrass, Italian; assay: Test A preemergence; assay type: in vivo, Lolium multiflorum
# How it was run: as §2
# [17] = system: corn; assay: Test A preemergence; assay type: in vivo, Zea mays
# From the text: as §1
# [18] = system: kochia; assay: Test A preemergence; assay type: in vivo, Bassia scoparia
# How it was run: as §2
# [19] = system: barnyardgrass; assay: Test B flooded paddy test; assay type: in vivo, Echinochloa crus-galli; conditions: 250 g ai/ha, Flood, 13 days, 0 to 100 scale (0 no effect, 100 complete control)
# Procedure: as §3
# [20] = system: ragweed; assay: Test A preemergence; assay type: in vivo, Ambrosia artemisiifolia
# How it was run: as §2
# [21] = system: foxtail, giant; assay: Test A preemergence; assay type: in vivo, Setaria faberi
# How it was run: as §2
# [22] = system: ryegrass, Italian; assay: Test A postemergence; assay type: in vivo, Lolium multiflorum; conditions: 500 g ai/ha, postemergence, 10 days, visual injury, 0 to 100 scale (0 no effect, 100 complete control)
# How it was run: as §2
# [23] = system: ducksalad; assay: Test B flooded paddy test; assay type: in vivo, Heteranthera limosa; conditions: 250 g ai/ha, Flood, 13 days, 0 to 100 scale (0 no effect, 100 complete control)
# Procedure: as §3
# [24] = system: sedge, umbrella; assay: Test B flooded paddy test; assay type: in vivo, Cyperus difformis; conditions: 250 g ai/ha, Flood, 13 days, 0 to 100 scale (0 no effect, 100 complete control)
# Procedure: as §3
# [25] = system: pigweed, palmer; assay: Test A postemergence; assay type: in vivo, Amaranthus palmeri; conditions: 500 g ai/ha, postemergence, 10 days, visual injury, 0 to 100 scale (0 no effect, 100 complete control)
# How it was run: as §2
# [26] = system: horseweed; assay: Test A postemergence; assay type: in vivo, Erigeron canadensis; conditions: postemergence, 10 days, visual injury, 0 to 100 scale (0 no effect, 100 complete control)
# How it was run: as §2
# [27] = 125 g ai/ha, postemergence, 10 days, visual injury, 0 to 100 scale (0 no effect, 100 complete control)
# [28] = 500 g ai/ha, Postemergence, 0 to 100 scale
# [29] = 125 g ai/ha, visual injury after 10 days, 0 to 100 scale, 0 is no effect, 100 is complete control
# [30] = 500 g ai/ha, 0 to 100 scale (0 no effect, 100 complete control), 10 days
smiles,measurement,setting,value
CCc1ncn(-c2ccc(C)c(C(=O)N3C[C@H](C)Oc4c(Cl)cccc43)c2)n1 [Compound 75],"Plant response rating, Oat, Wild",[1],90
same,"Plant response rating, Foxtail, Giant",[2]; 125 g ai/ha,90
same,"Plant response rating, Foxtail, Giant",[2]; 500 g ai/ha,100
same,"Plant response rating, Blackgrass",[3]; [27],90
same,"Plant response rating, Blackgrass",[3]; [28],90
same,"Plant response rating, Goosegrass",[4]; [29],100
same,"Plant response rating, Goosegrass",[4]; [30],100
same,"Plant response rating, Pigweed, Palmer",[5]; [29],100
same,"Plant response rating, Pigweed, Palmer",[5]; [30],100
same,"Plant response rating, Soybean",[6]; [29],80
same,"Plant response rating, Soybean",[6]; [30],100
same,"Plant response rating, Goosegrass",[7]; 125 g ai/ha,70
same,"Plant response rating, Goosegrass",[7]; 500 g ai/ha,90
same,"Plant response rating, Rice",[8],10
same,"Plant response rating, Galium",[9]; 125 g ai/ha,100
same,"Plant response rating, Galium",[9]; 500 g ai/ha,100
same,"Plant response rating, Corn",[10]; 125 g ai/ha,60
same,"Plant response rating, Corn",[10]; 500 g ai/ha,90
same,"Plant response rating, Wheat",[11],60
same,"Plant response rating, Soybean",[12],100
same,"Plant response rating, Wheat",[13]; [29],30
same,"Plant response rating, Wheat",[13]; [30],80
same,"Plant response rating, Kochia",[14]; 125 g ai/ha,90
same,"Plant response rating, Kochia",[14]; 500 g ai/ha,90
same,"Plant response rating, Ragweed",[15],80
same,"Plant response rating, Ryegrass, Italian",[16]; [29],100
same,"Plant response rating, Ryegrass, Italian",[16]; [30],100
same,"Plant response rating, Corn",[17]; [29],40
same,"Plant response rating, Corn",[17]; [30],50
same,"Plant response rating, Kochia",[18]; [29],80
same,"Plant response rating, Kochia",[18]; [30],90
same,"Plant response rating, Barnyardgrass",[19],50
same,"Plant response rating, Ragweed",[20]; [29],0
same,"Plant response rating, Ragweed",[20]; [30],100
same,"Plant response rating, Foxtail, Giant",[21]; [29],100
same,"Plant response rating, Foxtail, Giant",[21]; [30],100
same,"Plant response rating, Ryegrass, Italian",[22],100
same,"Plant response rating, Ducksalad",[23],70
same,"Plant response rating, Sedge, Umbrella",[24],98
same,"Plant response rating, Pigweed, Palmer",[25],100
same,"Plant response rating, Horseweed",[26]; 125 g ai/ha,50
same,"Plant response rating, Horseweed",[26]; 500 g ai/ha,70
Cc1cccc2c1O[C@@H](C)CN2C(=O)c1cccc(-n2cnc(C3CCC3)n2)c1 [Compound 77],"Plant response rating, Oat, Wild",[1],10
same,"Plant response rating, Foxtail, Giant",[2]; 125 g ai/ha,70
same,"Plant response rating, Foxtail, Giant",[2]; 500 g ai/ha,90
same,"Plant response rating, Blackgrass",[3]; [27],50
same,"Plant response rating, Blackgrass",[3]; [28],70
same,"Plant response rating, Goosegrass",[4]; [29],100
same,"Plant response rating, Goosegrass",[4]; [30],100
same,"Plant response rating, Pigweed, Palmer",[5]; [29],90
same,"Plant response rating, Pigweed, Palmer",[5]; [30],100
same,"Plant response rating, Soybean",[6]; [29],0
same,"Plant response rating, Soybean",[6]; [30],50
same,"Plant response rating, Goosegrass",[7]; 125 g ai/ha,20
same,"Plant response rating, Goosegrass",[7]; 500 g ai/ha,60
same,"Plant response rating, Rice",[8],0
same,"Plant response rating, Galium",[9]; 125 g ai/ha,100
same,"Plant response rating, Galium",[9]; 500 g ai/ha,100
same,"Plant response rating, Corn",[10]; 125 g ai/ha,40
same,"Plant response rating, Corn",[10]; 500 g ai/ha,80
same,"Plant response rating, Wheat",[11],30
same,"Plant response rating, Soybean",[12],100
same,"Plant response rating, Wheat",[13]; [29],20
same,"Plant response rating, Wheat",[13]; [30],50
same,"Plant response rating, Kochia",[14]; 125 g ai/ha,90
same,"Plant response rating, Kochia",[14]; 500 g ai/ha,90
same,"Plant response rating, Ragweed",[15],0
same,"Plant response rating, Ryegrass, Italian",[16]; [29],80
same,"Plant response rating, Ryegrass, Italian",[16]; [30],100
same,"Plant response rating, Corn",[17]; [29],0
same,"Plant response rating, Corn",[17]; [30],30
same,"Plant response rating, Kochia",[18]; [29],90
same,"Plant response rating, Kochia",[18]; [30],90
same,"Plant response rating, Barnyardgrass",[19],0
same,"Plant response rating, Ragweed",[20]; [29],0
same,"Plant response rating, Ragweed",[20]; [30],0
same,"Plant response rating, Foxtail, Giant",[21]; [29],90
same,"Plant response rating, Foxtail, Giant",[21]; [30],100
same,"Plant response rating, Ryegrass, Italian",[22],60
same,"Plant response rating, Ducksalad",[23],20
same,"Plant response rating, Sedge, Umbrella",[24],85
same,"Plant response rating, Pigweed, Palmer",[25],70
same,"Plant response rating, Horseweed",[26]; 125 g ai/ha,50
same,"Plant response rating, Horseweed",[26]; 500 g ai/ha,50
